The source of these data is patent US9803002B2, “Anti-wall teichoic antibodies and conjugates” (Genentech, Inc., priority 2013, dated 2017).

≈ marks a conversion by molar mass, not a printed value. Read-outs that look alike come from different tables or passages of the source. The star is where a group is joined. Propanoyl(3-maleimido) = O=C1C=CC(=O)N1CCC(=O)*

The conditions of data set [1]: clinically achievable serum levels; cited from earlier work.
Data set [2] has as its system MRSA (NRS384 strain of USA300). Put plainly: MIC determinations for intracellular bacteria inside mouse peritoneal macrophages. The class given is cell-based, Staphylococcus aureus. Conditions: for MIC: Staphylococcus aureus, read-out: Intracellular MRSA MIC.
Data set [3] relates to MRSA (NRS384 strain of USA300). The experiment in a line: MIC determinations for extracellular bacteria. Conditions: Staphylococcus aureus, read-out: Extracellular MRSA MIC.
Protocol: Dilutions of the antibiotic were made in quadruplicate in 96 well culture dishes. MRSA (NRS384 strain of USA300) was taken from an exponentially growing culture and diluted to 1×10^4 CFU/mL. Bacteria was cultured in the presence of antibiotic for 18-24 hours with shaking at 37° C. and bacterial growth was determined by reading the Optical Density (OD) at 630 nM. The MIC was determined to be the dose of antibiotic that inhibited bacterial growth by >90%.
Data set [4] deals with T1, staphopain A (Staphylococcus aureus, UniProt P81297).
T1 sequence (P81297 215-388): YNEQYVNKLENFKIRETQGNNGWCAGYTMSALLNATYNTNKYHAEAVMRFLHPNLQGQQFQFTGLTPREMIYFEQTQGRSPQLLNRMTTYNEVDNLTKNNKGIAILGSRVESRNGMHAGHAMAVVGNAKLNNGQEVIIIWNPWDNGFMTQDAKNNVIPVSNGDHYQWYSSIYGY
The class given is biochemical. The note with it: for Percent cleavage pH 7.2, Staphopain A: PBS pH 7.2, 2 hours at 37° C.; for Percent cleavage pH 7.2, Staphopain A / Cleavage product, Staphopain A: LC-MS.
Protocol: Fractions from each chromatography step were analyzed for activity, and 100 ul was used regardless of protein concentration. Samples were incubated overnight at 37° C. and subsequently analyzed by LC-MS to identify fractions where protease cleavage of the linker-antibiotic had occurred. Pooled active fractions from the Q Sepharose FF chromatography were measured to have a total protein concentration of 14 mg/ml. 200 μg of the pool was diluted to 2 mg/ml in PBS and was incubated with and without N-ethylmaleimide (NEM, Sigma) at a concentration of 0.1 mM final. Samples were incubated at room temperature for 1 hour. […] At 2 hours, samples were analyzed by LC-MS to identify whether protease cleavage of the linker-antibiotic had occurred. About 50 ul of the active fractions from SEC were incubated with 0.1 mM Alexa Fluor 488 C5 maleimide (Invitrogen) for 1 hour regardless of protein concentration for labeling. Cleavage assays with purified proteases were performed by incubating 5 uM of the thioFAB conjugate with 50 nM protease in a final volume of 100 ul. Assays were either performed in PBS pH 7.2, 4 mM L-Cys, 2.5 mM EDTA or 100 mM Sodium Citrate pH 5, 100 mM NaCl, 4 mM L-Cys, 2.5 mM EDTA. Samples were incubated for 2 hours at 37° C. At 2 hours, cleavage reactions were quenched by diluting 1:1 with 1% TFA. Samples were subsequently run on LC-MS to determine percent linker cleavage. Percent cleavage was determined by integrating the A280 chromatograms of the cleaved and intact species.
(§1) 5 μM of thioFAB 4497 MP-LAFGA-QSY7(“core peptide” disclosed as SEQ ID NO: 135) and thioFAB 4497 MP-LAFAA-QSY7 (“core peptide” disclosed as SEQ ID NO: 136) (FIG. 30) were incubated with 50 nM of protease in PBS pH 7.2, 4 mM L-Cys, 2.5 mM EDTA for 2 hours at 37° C. At 2 hours, cleavage reactions were quenched by diluting 1:1 with 1% TFA. Samples were subsequently run on LC-MS to determine percent linker cleavage.
5 μM of AAC-193 was incubated with 50 nM of protease in either PBS pH 7.2, 4 mM L-Cys, 2.5 mM EDTA or 100 mM Sodium Citrate pH 5, 100 mM NaCl, 4 mM L-Cys, 2.5 mM EDTA for 2 hours at 37° C. At 2 hours, cleavage reactions were quenched by diluting 1:1 with 1% TFA. Samples were subsequently run on LC-MS to determine percent linker cleavage.

In data set [5] the target is T2, staphopain B (Staphylococcus aureus, UniProt P0C1S6).
T2 construct: purchased Sigma-Aldrich S3951
T2 sequence (P0C1S6 220-393): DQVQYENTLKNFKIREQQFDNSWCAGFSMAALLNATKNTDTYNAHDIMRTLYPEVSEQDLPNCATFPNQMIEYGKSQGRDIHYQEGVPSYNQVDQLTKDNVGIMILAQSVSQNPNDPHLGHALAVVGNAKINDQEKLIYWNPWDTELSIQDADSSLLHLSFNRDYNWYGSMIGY
The data set is classed as biochemical. Conditions: for Percent cleavage pH 7.2, Staphopain B: PBS pH 7.2, 2 hours at 37° C.; for Percent cleavage pH 7.2, Staphopain B / Cleavage product, Staphopain B: LC-MS.
Protocol: Cleavage assays with purified proteases were performed by incubating 5 uM of the thioFAB conjugate with 50 nM protease in a final volume of 100 ul. Assays were either performed in PBS pH 7.2, 4 mM L-Cys, 2.5 mM EDTA or 100 mM Sodium Citrate pH 5, 100 mM NaCl, 4 mM L-Cys, 2.5 mM EDTA. Samples were incubated for 2 hours at 37° C. At 2 hours, cleavage reactions were quenched by diluting 1:1 with 1% TFA. Samples were subsequently run on LC-MS to determine percent linker cleavage. Percent cleavage was determined by integrating the A280 chromatograms of the cleaved and intact species. The antibiotic or chromophore moieties added on the C-terminus of the linkers add significant hydrophobicity, such that thioFAB with intact linkers and thioFAB with cleaved linkers are baseline resolved.
At 2 hours, cleavage reactions were quenched by diluting 1:1 with 1% TFA. Samples were subsequently run on LC-MS to determine percent linker cleavage.

The target in data set [6] is human cathepsin B (Homo sapiens, UniProt P07858). Put plainly: Linker cleavage assay with purified protease. The note with it: for Percent cleavage pH 7.2, Cathepsin B: PBS pH 7.2, 2 hours at 37° C.; for Percent cleavage pH 7.2, Cathepsin B / Cleavage product, Cathepsin B: LC-MS. The data set is classed as biochemical.
Protocol: The experimental mal-peptide-QSY7 linkers were conjugated to THIOFAB S4497 to evaluate the cleavability of these linkers.
Fractions from each chromatography step were analyzed for activity, and 100 ul was used regardless of protein concentration. Samples were incubated overnight at 37° C. and subsequently analyzed by LC-MS to identify fractions where protease cleavage of the linker-antibiotic had occurred. Pooled active fractions from the Q Sepharose FF chromatography were measured to have a total protein concentration of 14 mg/ml. 200 μg of the pool was diluted to 2 mg/ml in PBS and was incubated with and without N-ethylmaleimide (NEM, Sigma) at a concentration of 0.1 mM final. Samples were incubated at room temperature for 1 hour. […] At 2 hours, samples were analyzed by LC-MS to identify whether protease cleavage of the linker-antibiotic had occurred. About 50 ul of the active fractions from SEC were incubated with 0.1 mM Alexa Fluor 488 C5 maleimide (Invitrogen) for 1 hour regardless of protein concentration for labeling. Cleavage assays with purified proteases were performed by incubating 5 uM of the thioFAB conjugate with 50 nM protease in a final volume of 100 ul. Assays were either performed in PBS pH 7.2, 4 mM L-Cys, 2.5 mM EDTA or 100 mM Sodium Citrate pH 5, 100 mM NaCl, 4 mM L-Cys, 2.5 mM EDTA. Samples were incubated for 2 hours at 37° C. At 2 hours, cleavage reactions were quenched by diluting 1:1 with 1% TFA. Samples were subsequently run on LC-MS to determine percent linker cleavage. Percent cleavage was determined by integrating the A280 chromatograms of the cleaved and intact species. The antibiotic or chromophore moieties added on the C-terminus of the linkers add significant hydrophobicity, such that thioFAB with intact linkers and thioFAB with cleaved linkers are baseline resolved.
as §1
In data set [7] the test system is MRSA. Put plainly: Intravenous infection model in CB17.SCID mice. The class given is in vivo, mouse. The note with it: 50 mg/Kg AAC or 0.5 mg/Kg antibiotic, kidneys 4 days after infection. As for the experimental part:
Mice were sacrificed 4 days after infection and the total number of surviving bacteria per mouse (2 kidneys pooled) was determined by plating.
7 week old female mice were used for all in vivo experiments and infections were carried out by intravenous injection into the tail vein. A/J mice (Jackson Lab) were infected with a dose of 2×10^6 CFU. […] For studies examining the role of competing human IgG (SCID IVIG model), CB17.SCID mice (Charles River Laboratories, Hollister, Calif.) were reconstituted with GammaGard S/D IGIV Immune Globulin (ASD Healthcare, Brooks Ky.) using a dosing regimen optimized to achieve constant serum levels of >10 mg/mL of human IgG. IGIV was administered with an initial intravenous dose of 30 mg per mouse followed by a second dose of 15 mg/mouse by intraperitoneal injection after 6 hours, and subsequent daily dosings of 15 mg per mouse by intraperitoneal injection for 3 consecutive days. Mice were infected 4 hours after the first dose of IGIV with 2×10^7 CFU of MRSA diluted in phosphate buffered saline by intravenous injection. Mice that received vancomycin were treated with twice daily intraperitoneal injections of 100 mg/Kg of vancomycin starting between 6 and 24 hours post infection for the duration of the study. […]

Data set [8] concerns MRSA. The note with it: TSB media; vancomycin 2 and 20 μg/mL, rifampin 0.02 and 0.2 μg/mL.
Setting [9] is: MRSA inside mouse peritoneal macrophages, antibiotics added 1 day after infection, survival assessed 24 hours later.
[10] abbreviates: 5 μM conjugate, 50 nM protease, Sodium Citrate pH 5, 2 hours at 37° C.
The mark [11] stands for this setting: listed as MP-LAFG-piperazino-rifamycin.

For `CCCCCCCCCC(=O)N[C@@H](Cc1c[nH]c2ccccc12)C(=O)N[C@H](CC(N)=O)C(=O)N[C@@H](CC(=O)O)C(=O)N[C@@H]1C(=O)NCC(=O)N[C@@H](CCCN)C(=O)N[C@@H](CC(=O)O)C(=O)N[C@H](C)C(=O)N[C@@H](CC(=O)O)C(=O)NCC(=O)N[C@H](CO)C(=O)N[C@@H]([C@H](C)CC(=O)O)C(=O)N[C@@H](CC(=O)c2ccccc2N)C(=O)O[C@@H]1C` [Daptomycin], the “Serum Cmax” value in data set [1] is 80 µg/mL. The MIC in data set [2] (setting [9]) is above 100 µg/mL; in data set [3], 4 µg/mL (≈ 2.47 µM).

Take “MP-LAFAA-QSY7: maleimido-propionic-Leu-Ala-Phe-Ala-Ala linker with QSY7 as antibiotic surrogate, tested conjugated to thioFAB S4497 ({Propanoyl(3-maleimido)}-LAFAA-QSY7; also: conjugated to thioFAB S4497)”: the “Percent cleavage pH 7.2, Staphopain A” value in data set [4] (5 μM conjugate, 50 nM protease) was 23%. Moreover, the “Cleavage product, Staphopain A” value in data set [4] is listed as “A-QSY7”. For the same compound, the “Percent cleavage pH 7.2, Staphopain B” value in data set [5] (5 μM conjugate, 50 nM protease) is recorded as 100%. In data set [5], the “Cleavage product, Staphopain B” value was “A-QSY7”. Moreover, the “Percent cleavage pH 7.2, Cathepsin B” value in data set [6] (5 μM conjugate, 50 nM protease) was determined as 100%. Also, the “Cleavage product, Cathepsin B” value in data set [6] is “A-QSY7, and QSY7”.

On to “MP-LAFGA-QSY7: maleimido-propionic-Leu-Ala-Phe-Gly-Ala linker with QSY7 as antibiotic surrogate, tested conjugated to thioFAB S4497 ({Propanoyl(3-maleimido)}-LAFGA-QSY7; also: conjugated to thioFAB S4497)”, for which the “Percent cleavage pH 7.2, Staphopain A” value in data set [4] (5 μM conjugate, 50 nM protease) is given as 38%. In data set [4], the “Cleavage product, Staphopain A” value was “A-QSY7”. For the same compound, the “Percent cleavage pH 7.2, Staphopain B” value in data set [5] (5 μM conjugate, 50 nM protease) is given as 100%. Further, in data set [5], the “Cleavage product, Staphopain B” value was “A-QSY7”. For the same compound, the “Percent cleavage pH 7.2, Cathepsin B” value in data set [6] (5 μM conjugate, 50 nM protease) is listed as 100%. For the same compound, in data set [6], the “Cleavage product, Cathepsin B” value was “A-QSY7”.

For `CO[C@H]1/C=C/O[C@@]2(C)Oc3c(C)c(O)c4c(=O)c(c5oc6cc(N7CCN(C(=O)OCc8ccc(NC(=O)CNC(=O)[C@H](Cc9ccccc9)NC(=O)[C@H](C)NC(=O)[C@H](CC(C)C)NC(=O)CCN9C(=O)C=CC9=O)cc8)CC7)cc(O)c6nc-5c4c3C2=O)NC(=O)/C(C)=C\C=C\[C@H](C)[C@H](O)[C@@H](C)[C@@H](O)[C@@H](C)[C@H](OC(C)=O)[C@@H]1C` [LA-104, MP-LAFG-PABC-(piperazinoBOR)], the “Percent cleavage pH 7.2, Staphopain A” value in data set [4] (5 μM conjugate, 50 nM protease) is given as 46%. In addition, the “Percent cleavage pH 5, Staphopain A” value in data set [4] (setting [10]) was 100%. Further, the “Cleavage product, Staphopain A” value is listed as “piperazino-” in data set [4] and “free rifamycin” in data set [4] (setting [11]). The “Percent cleavage pH 7.2, Staphopain B” value in data set [5] (5 μM conjugate, 50 nM protease) was 100%. Also, the “Percent cleavage pH 5, Staphopain B” value in data set [5] (setting [10]) was 100%. Moreover, the “Cleavage product, Staphopain B” value is “piperazino-” in data set [5] and “free rifamycin” in data set [5] (setting [11]). In addition, the “Percent cleavage pH 7.2, Cathepsin B” value in data set [6] (5 μM conjugate, 50 nM protease) turned out to be 64%. Besides, the “Percent cleavage pH 5, Cathepsin B” value in data set [6] (setting [10]) came to 100%. In addition, in data set [6], the “Cleavage product, Cathepsin B” value was “Phe-Gly-piperazino-rifamycin”.

As to “dimethylpiperidyl benzoxazino rifamycin [dimethyl-pipBOR]”, the “killing intracellular MRSA when tested as free antibiotics” value in data set [2] is recorded as “more potent than rifampicin”. Besides, in data set [7], the “efficacy when given 1 day post infection” value was “failed to clear the infection”.

Take `CC(=O)NC[C@H]1CN(c2ccc(N3CCOCC3)c(F)c2)C(=O)O1` [Linezolid]: the “Serum Cmax” value in data set [1] was 10 µg/mL. For the same compound, the MIC in data set [2] (24 h) is above 20 µg/mL; in data set [3], 0.3 µg/mL (≈ 0.889 µM).

As for `CO[C@H]1/C=C/O[C@@]2(C)Oc3c(C)c(O)c4c(O)c(c(/C=N/N5CCN(C)CC5)c(O)c4c3C2=O)NC(=O)/C(C)=C\C=C\[C@H](C)[C@H](O)[C@@H](C)[C@@H](O)[C@@H](C)[C@H](OC(C)=O)[C@@H]1C` [Rifampicin], the “Serum Cmax” value in data set [1] was 20 µg/mL. Moreover, in data set [2] (setting [9]), the MIC was above 20 µg/mL. Moreover, in data set [3], the MIC worked out at 0.004 µg/mL (≈ 0.00486 µM). Besides, in data set [8], the “bacteria remained viable during the first two hours of antibiotic treatment” value was found to be 90% and the “loss in viable bacteria by 5 hours” value turned out to be 100 fold.

For “piperidyl benzoxazino rifamycin [pipBOR]”, the “killing intracellular MRSA when tested as free antibiotics” value in data set [2] is “more potent than rifampicin”.
